Our source for the TGI values is PubChem BioAssay (NCI).

Structures are written as SMILES.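 These data come from cells grown in 96-well plates and exposed to compound for 48 hours at five concentrations. The concentration for full growth arrest is given as TGI.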

The first assay has as its system OVCAR-4 ovarian. Description: NCI tumour cell line growth inhibition, 48 h.
Take `COC(=O)C1Cc2cc3c(cc2C1=O)CCC3` (configuration not stated): the TGI was over 100 µM.

Consider `Cc1c(N2C(=O)C(Cl)C2/C=C/c2ccccc2)c(=O)n(-c2ccccc2)n1C` (configuration not stated), for which the TGI was 84.6 µM.

`Cc1ccc2c(ccc(/C=C/c3ccc(O)c4ncccc34)[n+]2C)c1` had a TGI of 33.6 µM.

`CCOC(=O)c1ccc(N=C/C=C(\Nc2ccc(C(=O)OCC)cc2)C23CC4CC(CC(C4)C2)C3)cc1`: the TGI is over 100 µM.

`O=c1[nH]c2cc(C(F)(F)F)ccc2nc1C(F)(F)F` came in with a TGI of over 100 µM.

On to `Cc1ccc(C(=O)N/N=C(\N=Nc2cccc([N+](=O)[O-])c2)c2ccc(N(CCC#N)CCC#N)cc2C)cc1`, for which the TGI is over 100 µM.

The molecule `O=C(O)c1c2c(cc3c1CC(Cc1ccccc1)C3=O)CCC2` (configuration not stated) yielded a TGI of over 100 µM.

`OC(CC1CCCCN1)c1ccc2c(c1)oc1ccccc12` (configuration not stated) displayed a TGI of over 100 µM.

The molecule `C=CC[C@]1(/C=N/O)CN(S(=O)(=O)CC[Si](C)(C)C)C[C@H]2CC=CC[C@H]21` showed a TGI of 34.1 µM.

As for `O=C1OC(CCCN2CCCCC2)(c2ccccc2)CC12CCCC2` (configuration not stated), the TGI is over 100 µM.

On to `COC(=O)[C@@H]1C=C[C@H](OC2OC(COC(C)=O)C(OC(C)=O)C(OC(C)=O)C2OC(C)=O)n2c(=O)n(-c3ccccc3)c(=O)n21` (some centres not stated), for which the TGI is 3.22 µM.

`Nc1ccccc1CCN1CCN(CCCc2ccccc2)CC1` had a TGI of over 100 µM.

Take `COC(=O)C1=C(OC(=O)/C(=C/c2ccccc2)c2ccc(Cl)cc2Cl)C(C(=O)OC)[C@@]2(O)[C@@H](C(=O)OC)[C@H](C)C[C@@H]1[C@@H]2C(=O)OC` (some centres not stated): the TGI is over 100 µM.

`C#CCn1c(=O)c(I)cn(/C(=C/C(=O)OCC)C(=O)OCC)c1=O` returned a TGI of 21.4 µM.

Molecule `CS(=O)(=O)C(C#N)c1nc2ccccc2nc1Cl` (configuration not stated) gave a TGI of over 100 µM.

Turning to `O=C(/C=C/c1ccc(O)c(O)c1)OCC(OC(=O)/C=C/c1ccc(O)c(O)c1)C(=O)O` (configuration not stated), the TGI was over 100 µM.

As to `COc1ccc(CC2COc3cc(OC)cc(OC)c3C2=O)cc1` (configuration not stated), the TGI amounted to 51.5 µM.

As for `O=c1oc2ccccc2c(Nc2ccc3c(c2)Sc2ccccc2O3)c1[N+](=O)[O-]`, the TGI is over 100 µM.

The subject of another assay is T-47D breast. Description: NCI tumour cell line growth inhibition, 48 h.
`COC(=O)C1Cc2cc3c(cc2C1=O)CCC3` (configuration not stated) gave a TGI of over 100 µM.

The molecule `Cc1c(N2C(=O)C(Cl)C2/C=C/c2ccccc2)c(=O)n(-c2ccccc2)n1C` (configuration not stated) yielded a TGI of over 100 µM.

Turning to `Cc1ccc2c(ccc(/C=C/c3ccc(O)c4ncccc34)[n+]2C)c1`, the TGI is over 32.1 µM.

In turn, `CCOC(=O)c1ccc(N=C/C=C(\Nc2ccc(C(=O)OCC)cc2)C23CC4CC(CC(C4)C2)C3)cc1` came in with a TGI of over 100 µM.

Take `O=c1[nH]c2cc(C(F)(F)F)ccc2nc1C(F)(F)F`: the TGI was over 100 µM.

`Cc1ccc(C(=O)N/N=C(\N=Nc2cccc([N+](=O)[O-])c2)c2ccc(N(CCC#N)CCC#N)cc2C)cc1` came in with a TGI of 50.7 µM.

The molecule `O=C(O)c1c2c(cc3c1CC(Cc1ccccc1)C3=O)CCC2` (configuration not stated) yielded a TGI of over 100 µM.

`OC(CC1CCCCN1)c1ccc2c(c1)oc1ccccc12` (configuration not stated): the TGI is over 100 µM.

As to `C=CC[C@]1(/C=N/O)CN(S(=O)(=O)CC[Si](C)(C)C)C[C@H]2CC=CC[C@H]21`, the TGI was over 100 µM.

Take `O=C1OC(CCCN2CCCCC2)(c2ccccc2)CC12CCCC2` (configuration not stated): the TGI was over 100 µM.

As to `COC(=O)[C@@H]1C=C[C@H](OC2OC(COC(C)=O)C(OC(C)=O)C(OC(C)=O)C2OC(C)=O)n2c(=O)n(-c3ccccc3)c(=O)n21` (some centres not stated), the TGI was 8.75 µM.

`Nc1ccccc1CCN1CCN(CCCc2ccccc2)CC1`: the TGI came out at 53.3 µM.

Molecule `COC(=O)C1=C(OC(=O)/C(=C/c2ccccc2)c2ccc(Cl)cc2Cl)C(C(=O)OC)[C@@]2(O)[C@@H](C(=O)OC)[C@H](C)C[C@@H]1[C@@H]2C(=O)OC` (some centres not stated) gave a TGI of over 100 µM.

Turning to `C#CCn1c(=O)c(I)cn(/C(=C/C(=O)OCC)C(=O)OCC)c1=O`, the TGI stood at 2.28 µM.

For the molecule `CS(=O)(=O)C(C#N)c1nc2ccccc2nc1Cl` (configuration not stated), the TGI is over 100 µM.

`O=C(/C=C/c1ccc(O)c(O)c1)OCC(OC(=O)/C=C/c1ccc(O)c(O)c1)C(=O)O` (configuration not stated) yielded a TGI of over 100 µM.

Consider `COc1ccc(CC2COc3cc(OC)cc(OC)c3C2=O)cc1` (configuration not stated), for which the TGI was 56 µM.

`O=c1oc2ccccc2c(Nc2ccc3c(c2)Sc2ccccc2O3)c1[N+](=O)[O-]` displayed a TGI of 69.7 µM.

The subject of the next assay is PC-3 prostate. Description: NCI tumour cell line growth inhibition, 48 h.
`COC(=O)C1Cc2cc3c(cc2C1=O)CCC3` (configuration not stated) displayed a TGI of over 100 µM.

Regarding `Cc1c(N2C(=O)C(Cl)C2/C=C/c2ccccc2)c(=O)n(-c2ccccc2)n1C` (configuration not stated), the TGI is over 100 µM.

For `Cc1ccc2c(ccc(/C=C/c3ccc(O)c4ncccc34)[n+]2C)c1`, the TGI is over 49.8 µM.

The molecule `CCOC(=O)c1ccc(N=C/C=C(\Nc2ccc(C(=O)OCC)cc2)C23CC4CC(CC(C4)C2)C3)cc1` registered a TGI of over 100 µM.

`O=c1[nH]c2cc(C(F)(F)F)ccc2nc1C(F)(F)F` gave a TGI of 97.2 µM.

`Cc1ccc(C(=O)N/N=C(\N=Nc2cccc([N+](=O)[O-])c2)c2ccc(N(CCC#N)CCC#N)cc2C)cc1` yielded a TGI of over 100 µM.

In turn, `O=C(O)c1c2c(cc3c1CC(Cc1ccccc1)C3=O)CCC2` (configuration not stated) gave a TGI of over 100 µM.

The molecule `OC(CC1CCCCN1)c1ccc2c(c1)oc1ccccc12` (configuration not stated) yielded a TGI of over 100 µM.

In the case of `C=CC[C@]1(/C=N/O)CN(S(=O)(=O)CC[Si](C)(C)C)C[C@H]2CC=CC[C@H]21`, the TGI amounted to 51.7 µM.

`O=C1OC(CCCN2CCCCC2)(c2ccccc2)CC12CCCC2` (configuration not stated) displayed a TGI of over 100 µM.

`COC(=O)[C@@H]1C=C[C@H](OC2OC(COC(C)=O)C(OC(C)=O)C(OC(C)=O)C2OC(C)=O)n2c(=O)n(-c3ccccc3)c(=O)n21` (some centres not stated) returned a TGI of 7.67 µM.

Turning to `Nc1ccccc1CCN1CCN(CCCc2ccccc2)CC1`, the TGI was over 100 µM.

With `COC(=O)C1=C(OC(=O)/C(=C/c2ccccc2)c2ccc(Cl)cc2Cl)C(C(=O)OC)[C@@]2(O)[C@@H](C(=O)OC)[C@H](C)C[C@@H]1[C@@H]2C(=O)OC` (some centres not stated), the TGI is over 100 µM.

Consider `C#CCn1c(=O)c(I)cn(/C(=C/C(=O)OCC)C(=O)OCC)c1=O`, for which the TGI was found to be 11 µM.

Molecule `CS(=O)(=O)C(C#N)c1nc2ccccc2nc1Cl` (configuration not stated) came in with a TGI of over 100 µM.

Consider `O=C(/C=C/c1ccc(O)c(O)c1)OCC(OC(=O)/C=C/c1ccc(O)c(O)c1)C(=O)O` (configuration not stated), for which the TGI is over 100 µM.

The molecule `COc1ccc(CC2COc3cc(OC)cc(OC)c3C2=O)cc1` (configuration not stated) came in with a TGI of over 100 µM.

`O=c1oc2ccccc2c(Nc2ccc3c(c2)Sc2ccccc2O3)c1[N+](=O)[O-]` showed a TGI of 38.9 µM.

The subject of a further assay is KM12 colon. Description: NCI tumour cell line growth inhibition, 48 h.
Take `COC(=O)C1Cc2cc3c(cc2C1=O)CCC3` (configuration not stated): the TGI is over 100 µM.

Molecule `Cc1c(N2C(=O)C(Cl)C2/C=C/c2ccccc2)c(=O)n(-c2ccccc2)n1C` (configuration not stated) gave a TGI of 29.5 µM.

In the case of `Cc1ccc2c(ccc(/C=C/c3ccc(O)c4ncccc34)[n+]2C)c1`, the TGI is 33.3 µM.

Molecule `CCOC(=O)c1ccc(N=C/C=C(\Nc2ccc(C(=O)OCC)cc2)C23CC4CC(CC(C4)C2)C3)cc1` came in with a TGI of over 100 µM.

For `O=c1[nH]c2cc(C(F)(F)F)ccc2nc1C(F)(F)F`, the TGI is 71.2 µM.

On to `Cc1ccc(C(=O)N/N=C(\N=Nc2cccc([N+](=O)[O-])c2)c2ccc(N(CCC#N)CCC#N)cc2C)cc1`, for which the TGI amounted to 61.6 µM.

For the molecule `O=C(O)c1c2c(cc3c1CC(Cc1ccccc1)C3=O)CCC2` (configuration not stated), the TGI is over 100 µM.

Molecule `OC(CC1CCCCN1)c1ccc2c(c1)oc1ccccc12` (configuration not stated) came in with a TGI of over 100 µM.

For `C=CC[C@]1(/C=N/O)CN(S(=O)(=O)CC[Si](C)(C)C)C[C@H]2CC=CC[C@H]21`, the TGI came out at 51.5 µM.

Molecule `O=C1OC(CCCN2CCCCC2)(c2ccccc2)CC12CCCC2` (configuration not stated) registered a TGI of over 100 µM.

Regarding `COC(=O)[C@@H]1C=C[C@H](OC2OC(COC(C)=O)C(OC(C)=O)C(OC(C)=O)C2OC(C)=O)n2c(=O)n(-c3ccccc3)c(=O)n21` (some centres not stated), the TGI came out at 19.6 µM.

In turn, `Nc1ccccc1CCN1CCN(CCCc2ccccc2)CC1` had a TGI of over 100 µM.

With `COC(=O)C1=C(OC(=O)/C(=C/c2ccccc2)c2ccc(Cl)cc2Cl)C(C(=O)OC)[C@@]2(O)[C@@H](C(=O)OC)[C@H](C)C[C@@H]1[C@@H]2C(=O)OC` (some centres not stated), the TGI is over 100 µM.
